Test results from ChEMBL document CHEMBL1156187, “Discovery of a selective small-molecule melanocortin-4 receptor agonist with efficacy in a pilot study of sexual dysfunction in humans” (J Med Chem, 2010).

Columns and labels:
Melanocortin receptor 4 [1] = target: T1, Melanocortin receptor 4 (Homo sapiens, UniProt P32245); assay: Displacement of [125I]-MT-II from human recombinant MC4 receptor expressed in CHO cells by scintillation counting
[2] = target: T2, Melanocyte-stimulating hormone receptor (Homo sapiens, UniProt Q01726); assay: Agonist activity at human recombinant MC1 receptor expressed in HEK293 cells assessed as cAMP accumulation by enzyme fragment complementation assay; format: functional, cell-based
Target sequence in this assay (Q01726 whole entry, the tested form may be a part): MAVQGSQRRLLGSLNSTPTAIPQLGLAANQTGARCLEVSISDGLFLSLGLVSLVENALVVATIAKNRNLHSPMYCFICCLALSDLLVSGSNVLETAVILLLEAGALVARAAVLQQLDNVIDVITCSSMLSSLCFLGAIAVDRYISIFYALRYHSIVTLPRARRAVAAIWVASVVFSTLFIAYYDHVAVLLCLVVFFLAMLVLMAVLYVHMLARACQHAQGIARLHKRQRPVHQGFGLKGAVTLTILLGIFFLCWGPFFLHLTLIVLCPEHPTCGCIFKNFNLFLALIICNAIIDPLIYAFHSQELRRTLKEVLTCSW

[3] = target: T2, Melanocyte-stimulating hormone receptor; assay: Agonist activity at human recombinant MC1 receptor expressed in HEK293 cells assessed as cAMP accumulation by enzyme fragment complementation assay relative to alpha melanocyte-stimulating hormone; format: functional, cell-based
Target sequence in this assay (Q01726 whole entry, looked up, the tested form may be a part): as the sequence (Q01726 whole entry, the tested form may be a part) above

Melanocortin receptor 4 [4] = target: T1, Melanocortin receptor 4; assay: Agonist activity at human recombinant MC4 receptor expressed in CHO cells by cAMP responsive beta lactamase reporter gene assay; format: functional, cell-based
Melanocortin receptor 3 [5] = target: T3, Melanocortin receptor 3 (Homo sapiens, UniProt P41968); assay: Agonist activity at human recombinant MC3 receptor expressed in CHO cells assessed as cAMP accumulation by enzyme fragment complementation assay; format: functional, cell-based
Melanocortin receptor 3 [6] = target: T3, Melanocortin receptor 3; assay: Agonist activity at human recombinant MC3 receptor expressed in CHO cells assessed as cAMP accumulation by enzyme fragment complementation assay relative to […]; format: functional, cell-based
[7] = Intrinsic clearance in human liver microsome measured per mg of protein; format: ADME; conditions: liver microsomes
[8] = Lipophilicity, log D at pH 7.4; format: physicochemical; conditions: buffer
[9] = target: Voltage-gated inwardly rectifying potassium channel KCNH2 (Homo sapiens, UniProt Q12809); assay: Displacement of [3H]dofetilide from human ERG expressed in CHO cells by patch clamp method
Melanocortin receptor 5 [10] = target: T4, Melanocortin receptor 5 (Homo sapiens, UniProt P33032); assay: Agonist activity at human recombinant MC5 receptor expressed in HEK293 cells assessed as cAMP accumulation by beta lactamase reporter gene assay; format: functional, cell-based
Melanocortin receptor 5 [11] = target: T4, Melanocortin receptor 5; assay: Agonist activity at human recombinant MC5 receptor expressed in HEK293 cells assessed as cAMP accumulation by beta lactamase reporter gene assay relative to alpha melanocyte-stimulating hormone; format: functional, cell-based
[12] = Half life in rat at 1 mg/kg, iv; format: ADME, organism-based; parameters: dose 1 mg/kg, route intravenous; conditions: in vivo
[13] = Volume of distribution at steady state in dog plasma at 0.05 mg/kg, iv; format: ADME, organism-based, Canis lupus familiaris; parameters: dose 0.05 mg/kg, route intravenous; conditions: read-out: Vdss
[14] = Apparent Permeability from apical to basolateral side of MDCK2 cells over expressing MDR1; format: ADME, cell-based, Canis lupus familiaris; conditions: dog, MDCK-MDR1; read-out: permeability
[15] = Oral bioavailability in dog at 0.1 mg/kg; format: ADME, organism-based, Canis lupus familiaris; conditions: in vivo
[16] = Intrinsic clearance in dog liver microsome measured per mg of protein; format: ADME, Canis lupus familiaris; conditions: microsomes
[17] = Fraction unbound in dog plasma; format: ADME, cell-free, Canis lupus familiaris
[18] = Volume of distribution at steady state in rat at 1 mg/kg, iv; format: ADME, organism-based; parameters: dose 1 mg/kg, route intravenous; conditions: in vivo, read-out: Vdss
Liver microsomes = assay: Intrinsic clearance in rat liver microsome measured per mg of protein; format: ADME
[19] = Fraction unbound in rat plasma; format: ADME, cell-free
[20] = Binding affinity to sodium channel
[21] = Association constant, pKa of the compound; format: physicochemical
[22] = Clearance in rat at 1 mg/kg, iv; format: ADME, organism-based; parameters: dose 1 mg/kg, route intravenous; conditions: in vivo
[23] = Clearance in dog plasma at 0.05 mg/kg, iv; format: ADME, organism-based, Canis lupus familiaris; parameters: dose 0.05 mg/kg, route intravenous
[24] = Oral bioavailability in rat at 0.1 mg/kg; format: ADME, organism-based; conditions: in vivo
[25] = Half life in dog at 0.05 mg/kg, iv; format: ADME, organism-based, Canis lupus familiaris; parameters: dose 0.05 mg/kg, route intravenous; conditions: in vivo
[26] = Apparent Permeability from basolateral to apical side of MDCK2 cells over expressing MDR1; format: ADME, cell-based, Canis lupus familiaris; conditions: dog, MDCK-MDR1; read-out: permeability

T3 sequence (P41968 whole entry, the tested form may be a part): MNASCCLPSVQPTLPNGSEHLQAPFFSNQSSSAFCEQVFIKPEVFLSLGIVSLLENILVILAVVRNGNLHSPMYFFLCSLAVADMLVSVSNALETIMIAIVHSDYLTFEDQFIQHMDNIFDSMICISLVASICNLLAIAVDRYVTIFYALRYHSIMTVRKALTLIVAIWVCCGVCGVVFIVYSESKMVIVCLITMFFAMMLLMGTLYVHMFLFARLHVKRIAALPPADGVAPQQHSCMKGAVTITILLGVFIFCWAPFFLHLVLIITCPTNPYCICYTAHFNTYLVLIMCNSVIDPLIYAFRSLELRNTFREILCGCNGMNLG
T1 sequence (P32245 whole entry, the tested form may be a part): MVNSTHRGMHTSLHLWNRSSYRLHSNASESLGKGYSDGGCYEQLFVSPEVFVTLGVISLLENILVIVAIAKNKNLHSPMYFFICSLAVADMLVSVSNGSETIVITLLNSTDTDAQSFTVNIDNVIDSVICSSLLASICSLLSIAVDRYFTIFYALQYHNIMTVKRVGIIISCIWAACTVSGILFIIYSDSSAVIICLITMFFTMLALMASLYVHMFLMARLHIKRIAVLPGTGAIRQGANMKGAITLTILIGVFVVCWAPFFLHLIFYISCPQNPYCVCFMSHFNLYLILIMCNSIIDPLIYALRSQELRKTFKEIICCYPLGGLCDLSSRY
T4 sequence (P33032 whole entry): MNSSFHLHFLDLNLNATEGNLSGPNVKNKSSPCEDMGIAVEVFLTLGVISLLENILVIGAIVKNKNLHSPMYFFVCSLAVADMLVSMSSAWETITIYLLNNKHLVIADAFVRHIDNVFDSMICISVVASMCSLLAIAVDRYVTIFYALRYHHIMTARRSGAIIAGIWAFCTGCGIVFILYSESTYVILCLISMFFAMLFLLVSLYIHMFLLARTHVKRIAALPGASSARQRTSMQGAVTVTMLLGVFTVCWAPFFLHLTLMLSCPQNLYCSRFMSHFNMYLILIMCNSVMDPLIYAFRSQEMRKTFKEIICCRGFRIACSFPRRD
Chain of Voltage-gated inwardly rectifying potassium channel KCNH2 (Q12809 whole entry): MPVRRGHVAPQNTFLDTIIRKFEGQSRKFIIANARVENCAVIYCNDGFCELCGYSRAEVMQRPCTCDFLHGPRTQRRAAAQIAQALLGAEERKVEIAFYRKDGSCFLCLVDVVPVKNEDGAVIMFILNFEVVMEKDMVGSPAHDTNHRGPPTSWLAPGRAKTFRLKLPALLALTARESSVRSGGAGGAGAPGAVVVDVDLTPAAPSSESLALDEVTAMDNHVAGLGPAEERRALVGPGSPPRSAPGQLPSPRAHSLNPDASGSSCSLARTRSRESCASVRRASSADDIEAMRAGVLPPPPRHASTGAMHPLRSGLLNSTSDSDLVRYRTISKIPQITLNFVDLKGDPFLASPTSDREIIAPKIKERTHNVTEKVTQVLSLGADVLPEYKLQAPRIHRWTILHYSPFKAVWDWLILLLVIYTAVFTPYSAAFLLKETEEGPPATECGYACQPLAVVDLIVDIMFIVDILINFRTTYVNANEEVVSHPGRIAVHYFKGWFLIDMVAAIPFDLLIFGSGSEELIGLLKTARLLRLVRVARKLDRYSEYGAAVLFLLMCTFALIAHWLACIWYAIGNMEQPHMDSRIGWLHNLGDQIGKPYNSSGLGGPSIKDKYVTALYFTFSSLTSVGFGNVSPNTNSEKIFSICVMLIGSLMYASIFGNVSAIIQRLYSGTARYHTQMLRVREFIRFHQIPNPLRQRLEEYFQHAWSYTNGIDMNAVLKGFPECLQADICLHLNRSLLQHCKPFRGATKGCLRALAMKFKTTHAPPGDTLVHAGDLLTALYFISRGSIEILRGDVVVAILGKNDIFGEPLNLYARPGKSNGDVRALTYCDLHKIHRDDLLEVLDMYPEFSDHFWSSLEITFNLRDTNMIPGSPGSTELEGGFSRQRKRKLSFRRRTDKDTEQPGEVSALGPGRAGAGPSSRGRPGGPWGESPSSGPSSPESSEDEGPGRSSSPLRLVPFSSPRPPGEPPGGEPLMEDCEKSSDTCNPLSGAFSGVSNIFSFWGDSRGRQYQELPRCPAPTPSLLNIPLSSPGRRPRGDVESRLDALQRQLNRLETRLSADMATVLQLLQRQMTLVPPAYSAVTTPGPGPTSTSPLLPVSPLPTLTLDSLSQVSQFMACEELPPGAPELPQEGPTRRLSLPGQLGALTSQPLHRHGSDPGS

| SMILES | Ki (Melanocortin receptor 4 [1]) | EC50 [2] | Emax [3] | EC50 (Melanocortin receptor 4 [4]) | EC50 (Melanocortin receptor 3 [5]) | Emax (Melanocortin receptor 3 [6]) | microsomal CLint [7] | logD [8] | Ki [9] | EC50 (Melanocortin receptor 5 [10]) | Emax (Melanocortin receptor 5 [11]) | further results |
| --- | --- | --- | --- | --- | --- | --- | --- | --- | --- | --- | --- | --- |
| C[C@@H]1CN(C(=O)[C@H]2CN(C3CCC3)C[C@@H]2c2ccc(F)cc2F)C[C@H](C)[C@@]1(O)c1ccccc1 | 62 nM | 350 nM | 79% | 32 nM | 500 nM | 81% | – | – | – | – | – | – |
| CCC[C@@]1(O)[C@H](C)CN(C(=O)[C@H]2CN(c3cccnn3)C[C@@H]2c2ccc(F)cc2F)C[C@@H]1C | 56 nM | 3900 nM | 104% | 21 nM | 7480 nM | 79% | > 440 µL/min/mg | 2.8 | – | – | – | – |
| C[C@@H]1CN(C(=O)[C@H]2CN(C3CC3)C[C@@H]2c2ccc(F)cc2F)C[C@H](C)[C@@]1(O)c1ccccc1 | 290 nM | > 4910 nM | – | 55 nM | > 33300 nM | – | 342 µL/min/mg | > 4 | > 9170 nM | – | – | – |
| C[C@@H]1CN(C(=O)[C@H]2CN(c3ccncn3)C[C@@H]2c2ccc(F)cc2F)C[C@H](C)[C@@]1(O)c1ccccc1 | 64 nM | > 9000 nM | – | 4 nM | 600 nM | 75% | – | – | > 10000 nM | > 14000 nM | – | – |
| C[C@@H]1CN(C(=O)[C@H]2CN(c3cccnn3)C[C@@H]2c2ccc(F)cc2F)C[C@H](C)[C@@]1(O)c1ccccn1 | 52 nM | 1850 nM | 67% | 7 nM | 3660 nM | 75% | > 440 µL/min/mg | 3 | – | – | – | – |
| CC(C)N1C[C@@H](C(=O)N2C[C@@H](C)[C@](O)(c3ccccc3)[C@@H](C)C2)[C@H](c2ccc(F)cc2F)C1 | 114 nM | 750 nM | 100% | 69 nM | 11600 nM | 72% | 128 µL/min/mg | 3.2 | > 7880 nM | 3640 nM | 103% | – |
| CCC[C@@]1(O)[C@H](C)CN(C(=O)[C@@H]2CN(C(C)(C)C)C[C@H]2c2ccc(F)cc2F)C[C@@H]1C | 844 nM | 3610 nM | 95% | 126 nM | > 24700 nM | – | – | – | – | – | – | – |
| C[C@@H]1CN(C(=O)[C@@H]2CN(C(C)(C)C)C[C@H]2c2ccc(F)cc2F)C[C@H](C)[C@@]1(O)c1ccc(F)cc1F | 176 nM | 6570 nM | 93% | 62 nM | 10700 nM | – | – | – | – | – | 84% | – |
| C[C@@H]1CN(C(=O)[C@@H]2CN(C(C)(C)C)C[C@H]2c2ccc(F)cc2F)C[C@H](C)[C@@]1(O)c1ccccn1 | 350 nM | 1170 nM | 97% | 46 nM | > 33300 nM | – | – | – | 5840 nM | – | 100% | – |
| CCCC[C@H](NC(C)=O)C(=O)N[C@H]1CC(=O)NCCCC[C@@H](C(N)=O)NC(=O)[C@H](Cc2c[nH]c3ccccc23)NC(=O)[C@H](CCCNC(=N)N)NC(=O)C(Cc2ccccc2)NC(=O)[C@H](CC2=NC=NC2)NC1=O (single isomer, unassigned) | – | – | 98% | – | – | 87% | – | – | – | – | 61% | – |
| C[C@@H]1CN(C(=O)[C@@H]2CN(C(C)(C)C)C[C@H]2c2ccc(F)cc2F)C[C@H](C)[C@@]1(O)c1ccc(Cl)cc1 | 48 nM | > 5880 nM | – | 30 nM | 3680 nM | 75% | 16 µL/min/mg | 3.9 | > 10000 nM | 5190 nM | 107% | – |
| C[C@@H]1CN(C(=O)[C@@H]2CN(C(C)(C)C)C[C@H]2c2ccc(F)cc2F)C[C@H](C)[C@@]1(O)c1ccc(F)cc1.Cl | 36 nM | 1120 nM | 99% | 18 nM | 3050 nM | 79% | 28 µL/min/mg | 3.1 | – | 3600 nM | 116% | half-life [12]: 3.9 h; Vd [13]: 11 L/kg; Papp A→B [14]: 26 ×10⁻⁶ cm/s; bioavailability [15]: 28%; clearance [16]: 8 µL/min/mg; fraction unbound [17]: 0.09; Vd [18]: 11 L/kg; clearance (Liver microsomes): 47 µL/min/mg; fraction unbound [19]: 0.04; Ki [20]: 520 nM; pKa [21]: 8.74; clearance [22]: 34 mL/min/kg; clearance [23]: 12 mL/min/kg; bioavailability [24]: 74%; half-life [25]: 10.4 h; Papp B→A [26]: 22 ×10⁻⁶ cm/s |
| C[C@@H]1CN(C(=O)[C@H]2CN(C3CCOCC3)C[C@@H]2c2ccc(F)cc2F)C[C@H](C)[C@@]1(O)c1ccccc1 | 36 nM | > 11900 nM | – | 18 nM | > 14500 nM | – | 151 µL/min/mg | 3.1 | > 5270 nM | > 20000 nM | – | – |
| C[C@@H]1CN(C(=O)[C@@H]2CN(C(C)(C)C)C[C@H]2c2ccc(F)cc2F)C[C@H](C)[C@@]1(O)c1cccc(F)c1 | 97 nM | > 6470 nM | – | 6 nM | 570 nM | 81% | 52 µL/min/mg | 3.3 | – | 1800 nM | 74% | – |
| C[C@@H]1CN(C(=O)[C@H]2CN(c3cccnc3)C[C@@H]2c2ccc(F)cc2F)C[C@H](C)[C@@]1(O)c1ccccc1 | 50 nM | > 8220 nM | – | 5 nM | 65 nM | 90% | – | – | 5070 nM | – | – | – |
| CCCCN1C[C@H](C(=O)N2C[C@@H](C)[C@](O)(c3ccccc3)[C@@H](C)C2)[C@@H](c2ccc(F)cc2F)C1 | 233 nM | 1100 nM | 72% | 105 nM | > 5720 nM | – | – | – | – | 1430 nM | 72% | – |
| C[C@@H]1CN(C(=O)[C@@H]2CNC[C@H]2c2ccc(F)cc2F)C[C@H](C)[C@@]1(O)c1ccccc1 | 264 nM | > 8740 nM | – | 462 nM | > 25200 nM | – | – | – | 6650 nM | > 20000 nM | – | – |
| C[C@@H]1CN(C(=O)[C@@H]2CN(C(C)(C)C)C[C@H]2c2ccc(F)cc2F)C[C@H](C)[C@@]1(O)c1c(F)cccc1F | 99 nM | > 5010 nM | – | 45 nM | 4570 nM | 76% | – | – | 5000 nM | > 5810 nM | – | – |
